Measurements from ChEMBL document CHEMBL5036351, “Discovery of novel, potent and orally efficacious inhibitor of neutral amino acid transporter B0AT1 (SLC6A19)” (Bioorg Med Chem Lett, 2021).

How the values were obtained:
[1] = Inhibition of B0AT1 (unknown origin) by radiolabled uptake assay; parameters: species or system Homo sapiens
[2] = Inhibition of B0AT1 (unknown origin) by FLIPR assay; parameters: species or system Homo sapiens
[3] = Initial plasma concentration in C57BL/6 mouse at 1 mg/kg, iv; format: ADME, organism-based
[4] = MRT in C57BL/6 mouse at 3 mg/kg, po; format: ADME, organism-based; details: in vivo
[5] = Half life in C57BL/6 mouse at 3 mg/kg, po; format: ADME, organism-based; details: in vivo
[6] = biological target: T1, Cytochrome P450 2C8 (Homo sapiens, UniProt P10632); test: Inhibition of CYP2C8 (unknown origin); format: ADME
T1 sequence (P10632 whole entry): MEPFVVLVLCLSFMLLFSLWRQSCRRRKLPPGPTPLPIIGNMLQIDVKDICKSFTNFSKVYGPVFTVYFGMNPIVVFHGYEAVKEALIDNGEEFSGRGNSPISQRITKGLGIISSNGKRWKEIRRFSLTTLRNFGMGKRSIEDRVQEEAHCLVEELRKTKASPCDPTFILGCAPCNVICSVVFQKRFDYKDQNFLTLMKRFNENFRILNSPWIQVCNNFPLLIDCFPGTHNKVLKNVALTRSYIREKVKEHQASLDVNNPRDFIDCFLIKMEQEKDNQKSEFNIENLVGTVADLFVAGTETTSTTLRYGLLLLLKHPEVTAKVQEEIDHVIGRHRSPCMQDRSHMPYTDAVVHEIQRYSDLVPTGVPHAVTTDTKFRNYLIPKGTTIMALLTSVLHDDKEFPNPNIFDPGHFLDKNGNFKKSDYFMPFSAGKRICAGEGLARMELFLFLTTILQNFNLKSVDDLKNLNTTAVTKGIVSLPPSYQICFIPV

[7] = test system: Mus musculus; test: Anti-obesity activity in C57BL/6J mouse model of diet-induced obesity assessed as reduction in area under curve at 25 mg/kg, po dosed once daily for 28 days by insulin tolerance test; format: functional; parameters: scale not given: the % may be the effect or the level left; details: time 28 day
[8] = MRT in C57BL/6 mouse at 1 mg/kg, iv; format: ADME, organism-based; details: in vivo
[9] = Metabolic stability in human liver microsomes; format: ADME, Microsome
[10] = Metabolic stability in rat liver microsomes; format: ADME, Microsome
[11] = Clearance in C57BL/6 mouse at 1 mg/kg, iv; format: ADME, organism-based; details: in vivo
[12] = Metabolic stability in dog liver microsomes; format: ADME, Canis lupus familiaris, Microsome
[13] = biological target: Cytochrome P450 2C9 (Homo sapiens, UniProt P11712); test: Inhibition of CYP2C9 (unknown origin); format: ADME
[14] = Bioavailability in C57BL/6 mouse at 1 mg/kg, iv; format: ADME, organism-based; details: in vivo
[15] = Half life in C57BL/6 mouse at 1 mg/kg, iv; format: ADME, organism-based; details: in vivo
[16] = biological target: Cytochrome P450 3A4 (Homo sapiens, UniProt P08684); test: Inhibition of CYP3A4 (unknown origin); format: ADME
[17] = biological target: Cytochrome P450 2C19 (Homo sapiens, UniProt P33261); test: Inhibition of CYP2C19 (unknown origin); format: ADME
[18] = AUC (0 to t) in C57BL/6 mouse at 3 mg/kg, po; format: ADME, organism-based; parameters: dose 3 mg/kg; details: in vivo
[19] = test system: Mus musculus; test: Anti-obesity activity in high fat diet induced C57BL/6J mouse model assessed as change in body weight at 25 mg/kg, po dosed once daily for 28 days; format: functional; details: time 28 day
[20] = Volume of distribution at steady state in C57BL/6 mouse at 1 mg/kg, iv; format: ADME, organism-based; details: in vivo, read-out: Vdss
[21] = AUC (0 to t) in C57BL/6 mouse at 1 mg/kg, iv; format: ADME, organism-based; parameters: dose 1 mg/kg; details: in vivo
[22] = Tmax in C57BL/6 mouse at 3 mg/kg, po; format: ADME, organism-based; details: in vivo
[23] = Cmax in C57BL/6 mouse at 3 mg/kg, po; format: ADME, organism-based; parameters: route oral, dose 3 mg/kg; details: in vivo
[24] = Metabolic stability in mouse liver microsomes; format: ADME, Microsome

Chain of Cytochrome P450 2C9 (P11712 whole entry): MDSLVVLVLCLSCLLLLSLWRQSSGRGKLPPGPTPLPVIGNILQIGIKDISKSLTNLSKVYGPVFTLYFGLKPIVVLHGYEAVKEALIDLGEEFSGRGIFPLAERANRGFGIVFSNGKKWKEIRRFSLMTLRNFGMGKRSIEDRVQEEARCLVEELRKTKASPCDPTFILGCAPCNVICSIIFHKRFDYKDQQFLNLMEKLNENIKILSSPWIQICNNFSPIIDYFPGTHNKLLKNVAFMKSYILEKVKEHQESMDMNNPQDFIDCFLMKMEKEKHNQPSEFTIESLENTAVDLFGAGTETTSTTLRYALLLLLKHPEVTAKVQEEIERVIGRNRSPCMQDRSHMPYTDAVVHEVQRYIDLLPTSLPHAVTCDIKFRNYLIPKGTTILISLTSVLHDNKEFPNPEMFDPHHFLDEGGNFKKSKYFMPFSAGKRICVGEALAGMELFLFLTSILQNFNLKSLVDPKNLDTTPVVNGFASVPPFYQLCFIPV
Chain of Cytochrome P450 2C19 (P33261 whole entry): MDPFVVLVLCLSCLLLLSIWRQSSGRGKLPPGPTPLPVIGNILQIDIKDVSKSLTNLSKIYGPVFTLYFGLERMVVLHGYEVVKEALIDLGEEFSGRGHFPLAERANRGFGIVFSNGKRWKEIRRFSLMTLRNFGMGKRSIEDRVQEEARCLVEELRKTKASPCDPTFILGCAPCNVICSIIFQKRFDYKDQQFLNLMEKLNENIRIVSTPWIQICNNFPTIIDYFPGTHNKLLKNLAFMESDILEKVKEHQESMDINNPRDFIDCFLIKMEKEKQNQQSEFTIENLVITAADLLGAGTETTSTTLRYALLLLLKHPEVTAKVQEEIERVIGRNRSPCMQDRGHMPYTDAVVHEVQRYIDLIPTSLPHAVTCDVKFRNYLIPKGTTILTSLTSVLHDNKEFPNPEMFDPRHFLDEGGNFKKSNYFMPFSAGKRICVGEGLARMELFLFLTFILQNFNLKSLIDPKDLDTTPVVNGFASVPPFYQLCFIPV
Chain of Cytochrome P450 3A4 (P08684 whole entry): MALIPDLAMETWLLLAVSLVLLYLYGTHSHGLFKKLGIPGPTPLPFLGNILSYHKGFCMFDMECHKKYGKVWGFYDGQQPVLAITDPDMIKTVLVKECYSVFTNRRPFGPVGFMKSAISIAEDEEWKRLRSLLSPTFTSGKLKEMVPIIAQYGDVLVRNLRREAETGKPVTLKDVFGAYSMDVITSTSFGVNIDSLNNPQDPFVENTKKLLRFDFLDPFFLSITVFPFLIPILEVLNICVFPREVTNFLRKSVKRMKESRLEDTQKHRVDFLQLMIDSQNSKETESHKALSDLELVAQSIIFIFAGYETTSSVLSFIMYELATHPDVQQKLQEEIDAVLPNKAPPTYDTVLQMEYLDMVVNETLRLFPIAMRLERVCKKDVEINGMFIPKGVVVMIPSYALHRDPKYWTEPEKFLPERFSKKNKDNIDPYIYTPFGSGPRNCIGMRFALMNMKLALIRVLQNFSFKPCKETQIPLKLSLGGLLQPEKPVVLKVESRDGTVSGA

Molecule `CN1C2CCC1CC(OC(c1ccccc1)c1ccccc1)C2` (configuration not stated) has an IC50 [1] of 71 µM and an IC50 [2] of 44 µM.

`O=S(=O)(Nc1ccc(S(=O)(=O)C(F)(F)F)cc1Oc1ccc(Cl)cc1)c1ccccc1` gave an IC50 [1] greater than 1 µM.

`O=S(=O)(Nc1ccc(S(=O)(=O)C(F)(F)F)cc1Nc1ccccc1)c1ccccc1` gave an IC50 [1] of 0.69 µM.

In the case of `COc1ccc(Oc2cc(S(=O)(=O)C(F)(F)F)ccc2NS(=O)(=O)c2ccccc2)cc1OC`, the IC50 [1] is reported as greater than 1 µM.

Molecule `CS(=O)(=O)c1ccc(NS(=O)(=O)c2ccccc2)c(Oc2ccccc2)c1` has an IC50 [1] greater than 10 µM.

For `COc1ccc(Oc2cc(S(=O)(=O)C(F)(F)F)ccc2NS(=O)(=O)c2ccccc2)cc1`, the IC50 [1] was 0.6 µM.

Molecule `COc1cccc(Oc2cc(S(=O)(=O)C(F)(F)F)ccc2NS(=O)(=O)c2ccccc2)c1` has an IC50 [1] of 0.46 µM.

`O=S(=O)(Nc1ccc(S(=O)(=O)C(F)(F)F)cc1Oc1ccccc1)c1ccccc1` gave an IC50 [1] of 0.19 µM.

`N=C(NO)c1ccc(NS(=O)(=O)c2ccccc2)c(Oc2ccccc2)c1` gave an IC50 [1] greater than 10 µM.

In the case of `N#Cc1ccc(Oc2cc(S(=O)(=O)C(F)(F)F)ccc2NS(=O)(=O)c2ccccc2)cc1`, the IC50 [1] is reported as greater than 1 µM.

Work on `Cc1cccc(Oc2cc(S(=O)(=O)C(F)(F)F)ccc2NS(=O)(=O)c2ccccc2)c1` yielded an IC50 [1] of 1 µM.

`NC(c1ccccc1)c1cc(S(=O)(=O)C(F)(F)F)ccc1NS(=O)(=O)c1ccccc1` (configuration not stated) showed an IC50 [1] greater than 1 µM.

Molecule `O=S(=O)(Nc1ccc(S(=O)(=O)C(F)(F)F)cc1Oc1ccc(Cl)c(Cl)c1)c1ccccc1` has an IC50 [1] of 1 µM.

In the case of `Cc1ccc(Oc2cc(S(=O)(=O)C(F)(F)F)ccc2NS(=O)(=O)c2ccccc2)cc1`, the IC50 [1] is reported as greater than 1 µM.

With `N=C(N)c1ccc(NS(=O)(=O)c2ccccc2)c(Oc2ccccc2)c1` the IC50 [1] was greater than 10 µM.

With `Cc1cc(C)cc(Oc2cc(S(=O)(=O)C(F)(F)F)ccc2NS(=O)(=O)c2ccccc2)c1` the IC50 [1] was 0.44 µM.

With `Cc1cc(C(=O)Nc2ccc(Cl)cc2C(F)(F)F)no1` the IC50 [1] was 3.9 µM and the IC50 [2] was 1.9 µM.

For `O=S(=O)(Nc1ccc(S(=O)(=O)C(F)(F)F)cc1Oc1cc(F)cc(F)c1)c1ccccc1`, the C0 [3] was 6680 ng/mL, the MRT [4] was 6.73 h and the half-life [5] was 5.39 h. The “inhibition (INH)” value [6] was “Active”, the Activity [7] was 22.9% and the MRT [8] was 5.74 h. For the same molecule, the Stability [9] was “Stable”, the Stability [10] was “Stable” and the clearance [11] was 1.01 mL/min/kg. For the same molecule, the Stability [12] was “Stable”, the “inhibition (INH)” value [13] was “Active” and the bioavailability [14] was 64%. The IC50 [1] was 0.035 µM, the half-life [15] was 4.05 h and the “inhibition (INH)” value [16] was “Active”. The “inhibition (INH)” value [17] was “Active”, the AUC(0-t) [18] was 31300 ng·h/mL and the Activity [19] was -8.9%. For the same molecule, the Vd [20] was 0.35 L/kg, the AUC(0-t) [21] was 16200 ng·h/mL and the Tmax [22] was 2 h. The Cmax [23] was 3770 ng/mL and the Stability [24] was “Stable”.

For `O=S(=O)(Nc1ccc(S(=O)(=O)C(F)(F)F)cc1Sc1ccccc1)c1ccccc1`, the IC50 [1] was 0.8 µM.

With `O=S(=O)(Nc1ccc(S(=O)(=O)C(F)(F)F)cc1Oc1cccc(Cl)c1)c1ccccc1` the IC50 [1] was greater than 1 µM.

`O=S(=O)(Nc1ccc(S(=O)(=O)C(F)(F)F)cc1Oc1ccc(F)cc1)c1ccccc1` gave an IC50 [1] of 0.2 µM.

Work on `CN(C)c1cccc(Oc2cc(S(=O)(=O)C(F)(F)F)ccc2NS(=O)(=O)c2ccccc2)c1` yielded an IC50 [1] greater than 1 µM.

`O=S(=O)(Nc1ccc(S(=O)(=O)C(F)(F)F)cc1C(O)c1ccccc1)c1ccccc1` (configuration not stated) gave an IC50 [1] of 0.32 µM.

With `O=S(=O)(Nc1ccc(S(=O)(=O)C(F)(F)F)cc1OCc1ccccc1)c1ccccc1` the IC50 [1] was 1 µM.

For `c1ccc(CCCN2CCCCC2Cc2ccccc2)cc1` (configuration not stated), the IC50 [1] was 78 µM and the IC50 [2] was 90 µM.

Molecule `COC(=O)c1ccc(NS(=O)(=O)c2ccccc2)c(Oc2ccccc2)c1` has an IC50 [1] greater than 10 µM.

Work on `O=S(=O)(Nc1ccc(S(=O)(=O)C(F)(F)F)cc1S(=O)(=O)c1ccccc1)c1ccccc1` yielded an IC50 [1] greater than 1 µM.

With `N#Cc1ccc(NS(=O)(=O)c2ccccc2)c(Oc2ccccc2)c1` the IC50 [1] was greater than 10 µM.

`O=S(=O)(Nc1ccc(F)cc1Oc1ccccc1)c1ccccc1` showed an IC50 [1] greater than 10 µM.

Work on `O=C(Nc1ccccc1)c1cc(S(=O)(=O)C(F)(F)F)ccc1NS(=O)(=O)c1ccccc1` yielded an IC50 [1] greater than 1 µM.

`O=S(=O)(Nc1ccc(S(=O)(=O)C(F)(F)F)cc1Oc1ccc(F)c(F)c1)c1ccccc1` gave an IC50 [1] of 0.09 µM.

With `COc1ccc(C(CCCN2CCOCC2)c2ccc(C)cc2)cc1` (configuration not stated) the IC50 [1] was 16 µM and the IC50 [2] was 20 µM.

`O=C(O)c1ccc(NS(=O)(=O)c2ccccc2)c(Oc2ccccc2)c1` gave an IC50 [1] greater than 10 µM.

`O=S(=O)(Nc1ccc(S(=O)(=O)C(F)(F)F)cc1Oc1cccc(F)c1)c1ccccc1` showed an IC50 [1] of 0.15 µM.

In the case of `O=S(=O)(Nc1ccc(S(=O)(=O)C(F)(F)F)cc1-c1ccccc1)c1ccccc1`, the IC50 [1] is reported as 0.37 µM.

For `O=C(c1ccccc1)c1cc(S(=O)(=O)C(F)(F)F)ccc1NS(=O)(=O)c1ccccc1`, the IC50 [1] was 0.6 µM.

With `O=S(=O)(Nc1ccc(S(=O)(=O)C(F)(F)F)cc1OC1CCCCC1)c1ccccc1` the IC50 [1] was greater than 1 µM.

In the case of `O=[N+]([O-])c1ccc(NS(=O)(=O)c2ccccc2)c(Oc2ccccc2)c1`, the IC50 [1] is reported as 0.2 µM.

For `O=C(NO)c1ccc(NS(=O)(=O)c2ccccc2)c(Oc2ccccc2)c1`, the IC50 [1] was greater than 10 µM.

With `NC(=O)c1ccc(NS(=O)(=O)c2ccccc2)c(Oc2ccccc2)c1` the IC50 [1] was greater than 10 µM.

Work on `O=S(=O)(Nc1ccc(S(=O)(=O)C(F)(F)F)cc1Oc1cccnc1)c1ccccc1` yielded an IC50 [1] greater than 1 µM.

For `O=S(=O)(Nc1ccc(S(=O)(=O)C(F)F)cc1Oc1ccccc1)c1ccccc1`, the IC50 [1] was greater than 10 µM.

Molecule `COc1cc(F)cc(Oc2cc(S(=O)(=O)C(F)(F)F)ccc2NS(=O)(=O)c2ccccc2)c1` has an IC50 [1] of 0.1 µM.

`O=S(=O)(Nc1ccc(-c2nn[nH]n2)cc1Oc1ccccc1)c1ccccc1` showed an IC50 [1] greater than 10 µM.

`O=S(=O)(Nc1ccc(C(F)(F)F)cc1Oc1ccccc1)c1ccccc1` gave an IC50 [1] greater than 10 µM.

With `O=S(=O)(Nc1ccc(S(=O)(=O)C(F)(F)F)cc1Oc1ccc(C(F)(F)F)cc1)c1ccccc1` the IC50 [1] was 0.52 µM.

In the case of `CCNC(=O)/C=C/c1cccc(Br)c1` [CINROMIDE], the IC50 [1] is reported as 0.37 µM and the IC50 [2] is reported as 0.28 µM.

Work on `CS(=O)(=O)Nc1ccc([N+](=O)[O-])cc1Oc1ccccc1` [NIMESULIDE] yielded an IC50 [1] of 23 µM.

In the case of `CCc1ccc(CCOc2ccc(CC3SC(=O)NC3=O)cc2)nc1` (configuration not stated) [PIOGLITAZONE], the Activity [7] is reported as -36% and the Activity [19] is reported as 6%.
